Results as given in ChEMBL document CHEMBL1126024, “Di- and triester prodrugs of the varicella-zoster antiviral agent 6-methoxypurine arabinoside” (J Med Chem, 1992).
≈ marks a conversion by molar mass, not a printed value.

Legend:
[1] = Solubility (phosphate buffered saline); type: physicochemical; details: read-out: S
[2] = organism: Rattus norvegicus; test: (§1) Ester prodrugs: recovery of parent compound in rat urine; type: ADME, organism-based; details: in vivo
[3] = Ester prodrugs: stability in buffer (pH 7); type: physicochemical
[4] = organism: Rattus norvegicus; test: as §1; type: ADME, organism-based; details: in vivo; remark: listed apart in the source

Compound	solubility [1]	Urinary recovery [2]	T1/2 [3]	Urinary recovery [4]
COc1ncnc2c1ncn2[C@@H]1O[C@H](COC(=O)COc2ccccc2)[C@@H](OC(=O)COc2ccccc2)[C@@H]1OC(=O)COc1ccccc1	22 µM (≈ 15.1 µg/mL)	4.6%		
COc1ncnc2c1ncn2[C@@H]1O[C@H](CO)[C@@H](OC(=O)c2ccc(C)cc2)[C@@H]1OC(=O)c1ccc(C)cc1	5 µM (≈ 2.59 µg/mL)	0.2%		
CCC(=O)O[C@H]1[C@H](OC(=O)CC)[C@@H](CO)O[C@H]1n1cnc2c(OC)ncnc21	23500 µM (≈ 9270 µg/mL)	8.7%	525 days	
CCCCC(=O)O[C@H]1[C@H](OC(=O)CCCC)[C@@H](CO)O[C@H]1n1cnc2c(OC)ncnc21	694 µM (≈ 313 µg/mL)	9.1%	7.02 days	
COc1ncnc2c1ncn2[C@@H]1O[C@H](CO)[C@@H](O)[C@@H]1O	49800 µM (≈ 14100 µg/mL)	3.8%		25.9%
CCCC(=O)OC[C@H]1O[C@@H](n2cnc3c(OC)ncnc32)[C@@H](O)[C@@H]1OC(=O)CCC	422 µM (≈ 178 µg/mL)	11.8%		
COc1ncnc2c1ncn2[C@@H]1O[C@H](COC(=O)C(C)(C)C)[C@@H](OC(=O)C(C)(C)C)[C@@H]1OC(=O)C(C)(C)C	14 µM (≈ 7.48 µg/mL)	5.4%		
COc1ncnc2c1ncn2[C@@H]1O[C@H](COS(=O)(=O)c2ccc(C)cc2)[C@@H](OS(=O)(=O)c2ccc(C)cc2)[C@@H]1OS(=O)(=O)c1ccc(C)cc1	5 µM (≈ 3.72 µg/mL)	3%		
CCCC(=O)O[C@H]1[C@H](OC(=O)CCC)[C@@H](CO)O[C@H]1n1cnc2c(OC)ncnc21	9600 µM (≈ 4060 µg/mL)	4.8%	13.1 days	
COc1ncnc2c1ncn2[C@@H]1O[C@H](COC(C)=O)[C@@H](OC(C)=O)[C@@H]1OC(C)=O	81800 µM (≈ 33400 µg/mL)	8.3%	15.2 days	
COc1ncnc2c1ncn2[C@@H]1O[C@H](CO)[C@@H](OC(=O)COc2ccccc2)[C@@H]1OC(=O)COc1ccccc1	67 µM (≈ 36.9 µg/mL)	7.6%		
CCCCC(=O)OC[C@H]1O[C@@H](n2cnc3c(OC)ncnc32)[C@@H](OC(=O)CCCC)[C@@H]1OC(=O)CCCC	21 µM (≈ 11.2 µg/mL)	2.2%		
COc1ncnc2c1ncn2[C@@H]1O[C@H](COC(=O)c2ccccc2)[C@@H](O)[C@@H]1OC(=O)c1ccccc1	< 5 µM	5.8%		
CCC(=O)OC[C@H]1O[C@@H](n2cnc3c(OC)ncnc32)[C@@H](OC(=O)CC)[C@@H]1OC(=O)CC	3550 µM (≈ 1600 µg/mL)	0.8%	127 days	
CCCCCCC(=O)O[C@H]1[C@H](OC(=O)CCCCCC)[C@@H](CO)O[C@H]1n1cnc2c(OC)ncnc21	30 µM (≈ 15.2 µg/mL)	10.5%		
COc1ncnc2c1ncn2[C@@H]1O[C@H](COC(=O)C(C)(C)C)[C@@H](O)[C@@H]1OC(=O)C(C)(C)C	1350 µM (≈ 608 µg/mL)	15.7%	178 days	
CCC(=O)OC[C@H]1O[C@@H](n2cnc3c(OC)ncnc32)[C@@H](O)[C@@H]1OC(=O)CC	2390 µM (≈ 943 µg/mL)	11%	30.2 days	
COc1ncnc2c1ncn2[C@@H]1O[C@H](COC(=O)Cc2ccccc2)[C@@H](OC(=O)Cc2ccccc2)[C@@H]1O	< 5 µM	1.5%		
COc1ncnc2c1ncn2[C@@H]1O[C@H](CO)[C@@H](OC(C)=O)[C@@H]1OC(C)=O	172000 µM (≈ 63000 µg/mL)	19.2%	19.1 days	
CCCCCCCC(=O)O[C@H]1[C@H](OC(=O)CCCCCCC)[C@@H](CO)O[C@H]1n1cnc2c(OC)ncnc21	36 µM (≈ 19.2 µg/mL)	12.6%		
CCCCC(=O)OC[C@H]1O[C@@H](n2cnc3c(OC)ncnc32)[C@@H](OC(=O)CCCC)[C@@H]1O	1300 µM (≈ 586 µg/mL)	15.3%	51.6 days	
COc1ncnc2c1ncn2[C@@H]1O[C@H](COC(=O)C(C)C)[C@@H](OC(=O)C(C)C)[C@@H]1O	428 µM (≈ 181 µg/mL)	17.7%	19.5 days	
COc1ccc(C(=O)O[C@H]2[C@H](OC(=O)c3ccc(OC)cc3)[C@@H](CO)O[C@H]2n2cnc3c(OC)ncnc32)cc1	5 µM (≈ 2.75 µg/mL)	0.2%		

Compound	solubility [1]	Urinary recovery [2]	T1/2 [3]	Urinary recovery [4]
COc1ncnc2c1ncn2[C@@H]1O[C@H](COC(=O)C(C)C)[C@@H](OC(=O)C(C)C)[C@@H]1OC(=O)C(C)C	141 µM (≈ 69.4 µg/mL)	2.1%		
COc1ncnc2c1ncn2[C@@H]1O[C@H](COC(C)=O)[C@@H](O)[C@@H]1OC(C)=O	7100 µM (≈ 2600 µg/mL)	10.6%	22.5 days	
COc1ccc(C(=O)OC[C@H]2O[C@@H](n3cnc4c(OC)ncnc43)[C@@H](O)C2OC(=O)c2ccc(OC)cc2)cc1 (single isomer, unassigned)	45 µM (≈ 24.8 µg/mL)	0.2%		
COc1ccc(C(=O)OC[C@H]2O[C@@H](n3cnc4c(OC)ncnc43)[C@@H](OC(=O)c3ccc(OC)cc3)[C@@H]2O)cc1	6 µM (≈ 3.3 µg/mL)	0.2%		
COc1ncnc2c1ncn2[C@@H]1O[C@H](COC(=O)c2ccc(C)cc2)[C@@H](OC(=O)c2ccc(C)cc2)[C@@H]1OC(=O)c1ccc(C)cc1	< 5 µM	5.6%		
COc1ncnc2c1ncn2[C@@H]1O[C@H](COC(=O)c2ccccc2)C(OC(=O)c2ccccc2)[C@@H]1O (single isomer, unassigned)	33 µM (≈ 16.2 µg/mL)	4.3%		
COc1ncnc2c1ncn2[C@@H]1O[C@H](COC(C)=O)[C@@H](OC(C)=O)[C@@H]1O	12300 µM (≈ 4510 µg/mL)	16.3%	30.6 days	
CCCCCC(=O)O[C@H]1[C@H](OC(=O)CCCCC)[C@@H](CO)O[C@H]1n1cnc2c(OC)ncnc21	140 µM (≈ 67 µg/mL)	4.8%		
COc1ncnc2c1ncn2[C@@H]1O[C@H](CO)[C@@H](OC(=O)C(C)C)[C@@H]1OC(=O)C(C)C	3300 µM (≈ 1390 µg/mL)	2.3%	28.9 days	
CCCC(=O)OC[C@H]1O[C@@H](n2cnc3c(OC)ncnc32)[C@@H](OC(=O)CCC)[C@@H]1OC(=O)CCC	102 µM (≈ 50.2 µg/mL)	0.7%		
COc1ncnc2c1ncn2[C@@H]1O[C@H](CO)[C@@H](OC(=O)c2ccccc2)[C@@H]1OC(=O)c1ccccc1	13 µM (≈ 6.38 µg/mL)	0.1%		
COc1ncnc2c1ncn2[C@@H]1O[C@H](COC(=O)Cc2ccccc2)[C@@H](OC(=O)Cc2ccccc2)[C@@H]1OC(=O)Cc1ccccc1	< 5 µM	4.1%		
CCCCC(=O)OC[C@H]1O[C@@H](n2cnc3c(OC)ncnc32)[C@@H](O)[C@@H]1OC(=O)CCCC	78 µM (≈ 35.1 µg/mL)	12.8%		
COc1ncnc2c1ncn2[C@@H]1O[C@H](COC(=O)COc2ccccc2)[C@@H](OC(=O)COc2ccccc2)[C@@H]1O	58 µM (≈ 31.9 µg/mL)	3.8%		
COc1ncnc2c1ncn2[C@@H]1O[C@H](COC(=O)C(C)(C)C)[C@@H](OC(=O)C(C)(C)C)[C@@H]1O	32 µM (≈ 14.4 µg/mL)	1.2%		
COc1ncnc2c1ncn2[C@@H]1O[C@H](COC(=O)C(C)C)[C@@H](O)[C@@H]1OC(=O)C(C)C	9110 µM (≈ 3850 µg/mL)	4.2%	53.6 days	
COc1ncnc2c1ncn2[C@@H]1O[C@H](COS(C)(=O)=O)[C@@H](OS(C)(=O)=O)[C@@H]1OS(C)(=O)=O	3220 µM (≈ 1660 µg/mL)	4.4%	> 70 days	
COc1ncnc2c1ncn2[C@@H]1O[C@H](COC(=O)c2ccc(Cl)cc2)[C@@H](OC(=O)c2ccc(Cl)cc2)[C@@H]1OC(=O)c1ccc(Cl)cc1	< 5 µM	4.5%		
COc1ncnc2c1ncn2[C@@H]1O[C@H](CO)[C@@H](OC(=O)C(C)(C)C)[C@@H]1OC(=O)C(C)(C)C	640 µM (≈ 288 µg/mL)	1.6%	72.7 days	
COc1ncnc2c1ncn2[C@@H]1O[C@H](COC(=O)c2ccccc2)[C@@H](OC(=O)c2ccccc2)[C@@H]1OC(=O)c1ccccc1	8 µM (≈ 4.76 µg/mL)	0.9%		
COc1ncnc2c1ncn2[C@@H]1O[C@H](CO)[C@@H](OC(=O)Cc2ccccc2)[C@@H]1OC(=O)Cc1ccccc1	204 µM (≈ 106 µg/mL)	2.7%		
COc1ccc(C(=O)OC[C@H]2O[C@@H](n3cnc4c(OC)ncnc43)[C@@H](OC(=O)c3ccc(OC)cc3)[C@@H]2OC(=O)c2ccc(OC)cc2)cc1	< 5 µM	4.1%		
